Results as given in the supplement of paper PMC10307832.

How the values were obtained:
Assay in all cases: relative viability (nuclei count vs DMSO), 5 days (fraction); higher = more cells survive
[1] = compound: CN[C@@H]1C[C@H]2O[C@@](C)([C@@H]1OC)n1c3ccccc3c3c4c(c5c6ccccc6n2c5c31)C(=O)NC4 [Staurosporine] + Cc1cc(Nc2cc(N3CCN(C)CC3)nc(Sc3ccc(NC(=O)C4CC4)cc3)n2)n[nH]1 [Tozasertib] (partner 0.1 µM)
How it was run: (§1)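 Values are medians from duplicate plates. Each reflects relative viability, defined as the nuclei count of treated wells over that of vehicle wells. Lung cancer cell lines in 1536-well plates were pin-tool dosed one day after seeding with one drug alone or with a fixed anchor-drug dose plus five library-drug doses (not always all listed) in √10 steps, then fixed, stained and imaged at 4× after 5 days.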

[2] = compound: CN[C@@H]1C[C@H]2O[C@@](C)([C@@H]1OC)n1c3ccccc3c3c4c(c5c6ccccc6n2c5c31)C(=O)NC4 [Staurosporine] + CC(=O)Nc1cccc(-n2c(=O)n(C3CC3)c(=O)c3c(Nc4ccc(I)cc4F)n(C)c(=O)c(C)c32)c1 [Trametinib] (partner 0.02 µM)
How it was run: as §1

[3] = compound: CN[C@@H]1C[C@H]2O[C@@](C)([C@@H]1OC)n1c3ccccc3c3c4c(c5c6ccccc6n2c5c31)C(=O)NC4 [Staurosporine] + Cc1nc(NC(=O)N2CCC[C@H]2C(N)=O)sc1-c1ccnc(C(C)(C)C(F)(F)F)c1 [Alpelisib] (partner 2 µM)
How it was run: as §1

[4] = compound: CN[C@@H]1C[C@H]2O[C@@](C)([C@@H]1OC)n1c3ccccc3c3c4c(c5c6ccccc6n2c5c31)C(=O)NC4 [Staurosporine] + CC(=O)c1c(C)c2cnc(Nc3ccc(N4CCNCC4)cn3)nc2n(C2CCCC2)c1=O [Palbociclib] (partner 0.5 µM)
How it was run: as §1

In the case of UMC-11, the relative viability ([1]; first compound 0.005 µM) is reported as 0.189, the relative viability ([1]; first compound 0.01581 µM) is reported as 0.161 and the relative viability ([1]; first compound 0.05 µM) is reported as 0.145. The relative viability ([1]; first compound 0.1581 µM) was 0.127, the relative viability ([1]; first compound 0.5 µM) was 0.122 and the relative viability ([2]; first compound 0.005 µM) was 0.444. It also gave a relative viability ([2]; first compound 0.01581 µM) of 0.0989, a relative viability ([2]; first compound 0.05 µM) of 0.212 and a relative viability ([2]; first compound 0.1581 µM) of 0.121. It also gave a relative viability ([2]; first compound 0.5 µM) of 0.0798, a relative viability ([3]; first compound 0.005 µM) of 0.882 and a relative viability ([3]; first compound 0.01581 µM) of 0.427. For the same cell line, the relative viability ([3]; first compound 0.05 µM) was 0.461, the relative viability ([3]; first compound 0.1581 µM) was 0.145 and the relative viability ([3]; first compound 0.5 µM) was 0.0643. It also gave a relative viability ([4]; first compound 0.005 µM) of 0.335, a relative viability ([4]; first compound 0.05 µM) of 0.201 and a relative viability ([4]; first compound 0.1581 µM) of 0.152. It also gave a relative viability ([4]; first compound 0.5 µM) of 0.158.
